# Source: ChEMBL document CHEMBL1132056, “First hydroxamate inhibitors for carboxypeptidase A. N-acyl-N-hydroxy-beta-phenylalanines” (Bioorg Med Chem Lett, 1999)
# Molecular target: T1, Carboxypeptidase A1 (Homo sapiens, UniProt P15085)
# T1 sequence (P15085 whole entry): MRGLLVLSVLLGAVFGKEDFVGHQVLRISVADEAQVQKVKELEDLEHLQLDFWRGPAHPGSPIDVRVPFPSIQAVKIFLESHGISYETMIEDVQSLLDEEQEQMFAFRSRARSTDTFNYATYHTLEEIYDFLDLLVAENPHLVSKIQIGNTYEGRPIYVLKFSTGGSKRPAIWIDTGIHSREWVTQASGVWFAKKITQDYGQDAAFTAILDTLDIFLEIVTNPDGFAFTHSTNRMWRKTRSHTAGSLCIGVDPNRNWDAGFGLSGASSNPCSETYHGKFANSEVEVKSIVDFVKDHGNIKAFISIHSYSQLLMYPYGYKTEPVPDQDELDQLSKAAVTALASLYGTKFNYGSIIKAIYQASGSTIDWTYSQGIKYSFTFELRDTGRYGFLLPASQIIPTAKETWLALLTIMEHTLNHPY
# Assay: Compound was tested for its inhibitory activity against carboxypeptidase A (CPA)
smiles,measurement,value
O=CN(O)C[C@@H](Cc1ccccc1)C(=O)O,Ki,0.56 µM
O=C(O)C(Cc1ccccc1)CN(O)C(=O)Cc1ccccc1 (centres undefined),Ki,0.32 µM
O=C(O)C(Cc1ccccc1)CN(O)C(=O)CCCc1ccccc1 (centres undefined),Ki,1.16 µM
O=CN(O)C[C@H](Cc1ccccc1)C(=O)O,Ki,4.95 µM
CCC(=O)N(O)CC(Cc1ccccc1)C(=O)O (centres undefined),Ki,5.82 µM
O=CN(O)CC(Cc1ccccc1)C(=O)O (centres undefined),Ki,0.98 µM
O=C(O)C(Cc1ccccc1)CN(O)C(=O)CCc1ccccc1 (centres undefined),Ki,1.2 µM
O=C(O)C(Cc1ccccc1)CN(O)C(=O)c1ccccc1 (centres undefined),Ki,6.5 µM
CC(=O)N(O)CC(Cc1ccccc1)C(=O)O (centres undefined),Ki,5.9 µM
